We go through 36 compounds from patent publication US20070072874A1, “Aminoheteroaryl compounds as protein kinase inhibitors” (Sugen, Inc., priority 2003, published 2007).

T1 sequence (P08581 25-1390): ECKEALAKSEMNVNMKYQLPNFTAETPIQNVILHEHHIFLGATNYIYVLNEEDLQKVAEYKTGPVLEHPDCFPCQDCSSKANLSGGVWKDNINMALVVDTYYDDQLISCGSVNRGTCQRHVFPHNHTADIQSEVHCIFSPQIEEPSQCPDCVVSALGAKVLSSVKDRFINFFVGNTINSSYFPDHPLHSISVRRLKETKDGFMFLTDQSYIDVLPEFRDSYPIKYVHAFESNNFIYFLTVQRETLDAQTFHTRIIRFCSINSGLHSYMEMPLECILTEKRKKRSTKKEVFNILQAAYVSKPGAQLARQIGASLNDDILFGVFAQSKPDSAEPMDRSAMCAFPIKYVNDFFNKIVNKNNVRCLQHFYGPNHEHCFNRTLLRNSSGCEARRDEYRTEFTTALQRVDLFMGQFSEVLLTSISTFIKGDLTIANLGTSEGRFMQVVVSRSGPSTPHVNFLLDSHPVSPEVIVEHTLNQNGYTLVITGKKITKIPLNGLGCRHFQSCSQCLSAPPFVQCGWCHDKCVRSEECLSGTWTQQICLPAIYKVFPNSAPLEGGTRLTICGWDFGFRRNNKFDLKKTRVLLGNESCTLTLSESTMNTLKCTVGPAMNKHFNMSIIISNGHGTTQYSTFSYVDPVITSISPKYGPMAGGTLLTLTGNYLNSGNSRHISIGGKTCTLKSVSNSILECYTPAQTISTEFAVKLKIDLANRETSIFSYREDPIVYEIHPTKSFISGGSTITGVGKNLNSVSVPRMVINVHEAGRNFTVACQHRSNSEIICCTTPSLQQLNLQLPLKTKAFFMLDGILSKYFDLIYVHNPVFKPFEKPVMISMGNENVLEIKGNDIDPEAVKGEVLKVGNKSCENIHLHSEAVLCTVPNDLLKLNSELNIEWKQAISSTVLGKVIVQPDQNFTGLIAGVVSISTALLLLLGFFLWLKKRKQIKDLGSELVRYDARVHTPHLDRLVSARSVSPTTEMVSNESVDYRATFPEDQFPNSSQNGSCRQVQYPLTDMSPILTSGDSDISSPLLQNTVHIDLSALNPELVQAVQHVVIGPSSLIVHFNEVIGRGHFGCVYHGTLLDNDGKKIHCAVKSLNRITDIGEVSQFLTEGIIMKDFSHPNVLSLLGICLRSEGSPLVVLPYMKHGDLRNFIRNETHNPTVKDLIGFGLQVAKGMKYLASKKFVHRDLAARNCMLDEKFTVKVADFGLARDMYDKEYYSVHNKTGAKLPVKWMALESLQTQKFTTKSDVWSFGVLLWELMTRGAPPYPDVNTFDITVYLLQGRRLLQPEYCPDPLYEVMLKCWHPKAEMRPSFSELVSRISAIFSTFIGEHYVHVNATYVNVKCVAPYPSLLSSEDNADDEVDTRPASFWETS

One assay concerns the target T1, HGFR (c-MET) (Homo sapiens, UniProt P08581).
T1 construct: purchased Upstate 14-526
Description: HGFR continuous-coupled spectrophotometric assay (Ki and % inhibition). As to conditions: Table 3, column 'Ki(μM) or I(%)': values without % sign; read-out: Ki. In kind it is biochemical.
The Ki is a measure of affinity in units of concentration, obtained from inhibition or displacement. With `CC(Oc1cc(-c2ccc(CN3CCOCC3)cc2)cnc1N)c1c(Cl)ccc(F)c1Cl` (stereo not drawn) [Example I-572, 3-[1-(2,6-Dichloro-3-fluoro-phenyl)-ethoxy]-(4-morpholin-4-ylmethyl-phenyl)-pyridin-2-ylamine], the Ki worked out at 0.554 µM. The same measure, in the same setting: to `Nc1ncc(-c2ccc(C(=O)N3CCC(N4CCCC4)CC3)cc2)cc1OCc1ccc(-c2ccccc2)cc1` [Example I-651] belongs 1.53 µM; to `CC(Oc1cc(-c2ccc(CN3C[C@@H](C)O[C@@H](C)C3)cc2)cnc1N)c1c(Cl)ccc(F)c1Cl` (stereo partly drawn) [Example I-571, 3-[1-(2,6-Dichloro-3-fluoro-phenyl)-ethoxy]-5-(4-((2R,6S)-2,6-dimethyl-morpholin-4-ylmethyl)-phenyl]-pyridin-2-ylamine], 0.27 µM. `CCN1CCN(C(=O)c2ccc(-c3cnc(N)c(OC(C)c4c(Cl)ccc(F)c4Cl)c3)cc2)CC1` (stereo not drawn) [Example I-633, (4-{6-Amino-5-[1-(2,6-dichloro-3-fluoro-phenyl)-ethoxy]-pyridin-3-yl}-phenyl)-(4-ethyl-piperazin-1-yl)-methanone]: the Ki is 0.0472 µM.

Staying with this assay, now noted: at 50 nM; Table 5, library products of procedure 40, crude reaction stock; read-out: % inhibition (percent c-MET inhibition).
As usually defined, the inhibition is the change of the read-out against control, counted positive when it falls. Consider `CC(Oc1cc(-c2ccc(C(=O)N3CCCCC3CCO)cc2)cnc1N)c1c(Cl)ccc(F)c1Cl` [Example L-47], for which the inhibition at 0.05 µM is 63%. On the same count and under the same terms, the same measure for `CC(Oc1cc(-c2ccc(C(=O)N(C)CCO)cc2)cnc1N)c1c(Cl)ccc(F)c1Cl` [Example L-104]: 69%; for `CC(C)OCCNC(=O)c1ccc(-c2cnc(N)c(OC(C)c3c(Cl)ccc(F)c3Cl)c2)cc1` [Example L-140]: 64%.

Still in this assay, the particulars now being: at 1 μM; Table 8, library products of procedure 43, crude reaction stock; read-out: % inhibition (percent c-MET inhibition).
In the case of `CC1CN(C(=O)c2ccc(-c3cnc(N)c(OCc4nc5cc(C(F)(F)F)ccc5s4)c3)cc2)CC(C)N1` (stereo not drawn), the inhibition at 1 µM amounted to 27%. Still for that read-out and setting: the same measure for `CC1CN(C(=O)c2ccc(-c3cnc(N)c(COc4cc(F)ccc4C(F)(F)F)c3)cc2)CC(C)N1` (stereo not drawn): 17%.

Still in this assay, the particulars now being: cells marked "Ki"; read-out: Ki (printed in the Met IC50 column).
As for `CC(Oc1cc(-c2ccc(OCC(=O)N3CCN(C(=O)OC(C)(C)C)CC3)cc2)cnc1N)c1c(Cl)ccc(F)c1Cl` (stereo not drawn) [Example I-479, 4-[2-(4-{8-Amino-5-[1-(2,6-dichloro-3-fluoro-phenyl)-ethoxy]-pyridin-3-yl}-phenoxy)-acetyl]-piperazine-1-carboxylic acid tert-butyl ester], the Ki was 0.016 µM.

The same assay, now with this note: read-out: % (inhibition) at 1 μM (printed in the Met IC50 column), at 1 μM.
`CC(Oc1cc(CNC(=O)N2CCC[C@@H]2CN2CCCC2)cnc1N)c1c(Cl)ccc(F)c1Cl` (stereo partly drawn) [Example I-457, (R)-2-Pyrrolidin-1-ylmethyl-pyrrolidine-1-carboxylic acid {6-amino-5-[1-(2,6-dichloro-3-fluoro-phenyl)-ethoxy]-pyridin-3-ylmethyl}-amide]: the inhibition at 1 µM is 1%. For `CC(Oc1cc([C@@H](O)CO)cnc1N)c1c(Cl)ccc(F)c1Cl` (stereo partly drawn) [Example I-463, (R)-1-{6-Amino-5-[1-(2,6-dichloro-3-fluoro-phenyl)-ethoxy]-pyridin-3-yl}-ethane-1,2-diol], the inhibition at 1 µM came out at 2%. As to `COc1c(F)cccc1C(C)Oc1cc(Br)cnc1N` (stereo not drawn) [Example I-469, 5-Bromo-3-[1-(3-fluoro-2-methoxy-phenyl)-ethoxy]-pyridin-2-ylamine], the inhibition at 1 µM was found to be 7%. Still for that read-out and setting: the same measure for `COc1c(F)cccc1COc1cc(-c2ccc(C(=O)N3C[C@@H](C)N[C@@H](C)C3)cc2)cnc1N` [Example I-470, (4-{6-Amino-5-(3-fluoro-2-methoxy-benzyloxy)-pyridin-3-yl]-phenyl}-((3R,5S)-3,5-dimethyl-piperazin-1-yl)-methanone]: 3%; for `CC(Oc1cc(-c2ccc(C(=O)NCCN3CCCC3)cc2)cnc1N)c1cccc(F)c1C(F)(F)F` (stereo not drawn) [Example I-450, 4-{6-Amino-5-[1-(3-fluoro-2-trifluoromethyl-phenyl)-ethoxy]-pyridin-3-yl}-N-(2-pyrrolidin-1-yl-ethyl)-benzamide]: 7%; for `CC(Oc1cc(-c2ccc(C(=O)NCCN3CCOCC3)cc2)cnc1N)c1cccc(F)c1C(F)(F)F` (stereo not drawn) [Example I-451, 4-{6-Amino-5-[1-(3-fluoro-2-trifluoromethyl-phenyl)-ethoxy]-pyridin-3-yl}-N-(2-morpholin-4-yl-ethyl)-benzamide]: 12%. The same measure, in the same setting: the same measure for `Cc1ccc(S(=O)(=O)NCc2cnc(N)c(OC(C)c3c(Cl)ccc(F)c3Cl)c2)cc1` (stereo not drawn) [Example I-460, N-{6-Amino-5-[1-(2,6-dichloro-3-fluoro-phenyl)-ethoxy]-pyridin-3-ylmethyl}-4-methyl-benzenesulfonamide]: 9%; for `CC(Oc1cc(-c2ccc(C(=O)N3CCC[C@H]3CN3CCCC3)cc2)cnc1N)c1cccc(F)c1C(F)(F)F` (stereo partly drawn) [Example I-445, (4-{6-Amino-5-[1-(3-fluoro-2-trifluoromethyl-phenyl)-ethoxy]-pyuidin-3-yl}-phenyl)-((S)-2-pyrrolidin-1-ylmethyl-pyrrolidin-1-yl)-methanone]: 15%; for `CC(Oc1cc(-c2ccc(C(=O)N3CCN(C)CC3)cc2)cnc1N)c1cccc(F)c1C(F)(F)F` (stereo not drawn) [Example I-442, (4-{6-Amino-5-[1-(3-fluoro-2-trifluoromethyl-phenyl)-ethoxy]-pyridin-3-yl}-phenyl)-(4-methyl-piperazin-1-yl)-methanone]: 16%. For `CC(Oc1cc(CNS(C)(=O)=O)cnc1N)c1c(Cl)ccc(F)c1Cl` (stereo not drawn) [Example I-458, N-{6-Amino-5-[1-(2,6-dichloro-3-fluorophenyl)-ethoxy]-pyridin-3-ylmethyl}-methanesulfonamide], the inhibition at 1 µM worked out at 0%. Same read-out and setting: to `CC(Oc1cc(CN)cnc1N)c1c(Cl)ccc(F)c1Cl` (stereo not drawn) [Example I-456, 5-Aminomethyl-3-[1-(2,6-dichloro-3-fluoro-phenyl)-ethoxy]-pyridin-2-ylamine] belongs 0%. Still for that read-out and setting: the same measure for `CC(Oc1cc(-c2ccc(C(=O)N3C[C@@H](C)N[C@@H](C)C3)cc2)cnc1N)c1cccc(F)c1C(F)(F)F` (stereo partly drawn) [Example I-444, (4-{6-Amino-5-[1-(3-fluoro-2-trinuommethyl-phenyl)-ethoxy]-pyridin-3-yl}-phenyl)-((3R,5S)-3,5-dimethyl-piperazin-1-yl)-methanone]: 10%. Still for that read-out and setting: the same measure for `CC(Oc1cc(-c2ccc(C(=O)N3CCC[C@@H]3CN3CCCC3)cc2)cnc1N)c1cccc(F)c1C(F)(F)F` (stereo partly drawn) [Example I-446, (4-{6 Amino-5-[1-(3-fluoro-2-trifluoromethyl-phenyl)-ethoxy]pyridin-3-yl}-phenyl)-((R) 2 pyrrolidin-1-ylmethyl-pyrrolidin-1-yl)-methanone]: 12%.

Take `CC(Oc1cc(-c2ccc(C(=O)NC3CCN(C)CC3)cc2)cnc1N)c1cccc(F)c1C(F)(F)F` (stereo not drawn) [Example I-449, 4-{6-Amino-5-[1-(3-fluoro-2-trifluoromethyl-phenyl)-ethoxy]pyridin-3-yl}-N-[1-methylpiperidin-4-yl)-benzamide]: the inhibition at 1 µM is 12%. With `COc1c(F)cccc1C(C)Oc1cc(-c2ccc(C(=O)N3C[C@@H](C)N[C@@H](C)C3)cc2)cnc1N` (stereo partly drawn) [Example I-471], the inhibition at 1 µM worked out at 1%. On the same count and under the same terms, to `CC(Oc1cc(Br)cnc1N)c1cccc(F)c1Cl` (stereo not drawn) [Example I-486, Bromo-3-[1-(2-chloro-3-fluoro-phenyl)-ethoxy]-pyridin-2-ylamine] belongs 0%; to `CC(Oc1cc([C@H](O)CO)cnc1N)c1c(Cl)ccc(F)c1Cl` (stereo partly drawn) [Example I-462, (S)-1-{6 Amino-5-[1-(2,6-dichloro-3-fluoro-phenyl)-ethoxy]-pyridin-3-yl}-ethane-1,2-diol], 2%; to `COc1c(F)cccc1COc1cc(Br)cnc1N` [Example I-468, 5-Bromo-3-(3-fluoro-2-methoxy-benzyloxy)-pyridin-2-ylamine], 8%.

On to `CC(Oc1cc(-c2ccc(C(=O)NCCCN3CCOCC3)cc2)cnc1N)c1cccc(F)c1C(F)(F)F` (stereo not drawn) [Example I-453, 4-{6-Amino-5-[1-(3-fluoro-2-trifluoromethyl-phenyl)-ethoxy]-pyridin-3-yl}-N-(3-morpholin-4-yl-propyl)-benzamide], for which the inhibition at 1 µM was determined as 10%.

In the case of `CC(=O)NCc1cnc(N)c(OC(C)c2c(Cl)ccc(F)c2Cl)c1` (stereo not drawn) [Example I-459, N-{6-Amino-5-[1-(2,6-dichloro-3-fluoro-phenyl)-ethoxy]-pyridin-3-ylmethyl}-acetamide], the inhibition at 1 µM came to 2%. On to `CC(Oc1cc(-c2ccc(C(=O)NCCCN3CCCC3)cc2)cnc1N)c1cccc(F)c1C(F)(F)F` (stereo not drawn) [Example I-452, 4-{6-Amino-5-[1-(3-fluoro-2-trifluoromethyl-phenyl)-ethoxy]-pyridin-3-yl}-N-(3-pyrrolidin-1-yl-propyl)-benzamide], for which the inhibition at 1 µM is 3%. Same read-out and setting: to `CC(Oc1cc(C#N)cnc1N)c1c(Cl)ccc(C#N)c1Cl` (stereo not drawn) [Example I-455, 6-Amino-5-[1-(2,6-dichloro-3-cyano-phenyl)-ethoxy]-nicotinonitrile] belongs 8%; to `CC(Oc1cc(-c2ccc(C(=O)N3CCC(N4CCCC4)CC3)cc2)cnc1N)c1cccc(F)c1C(F)(F)F` (stereo not drawn) [Example I-443, (4-{6-Amino-5-[1-(3-fluoro-2-trifluoromethyl-phenyl)-ethoxy]-pyridin-3-yl}-phenyl)-(4-pyrrolidin-1-yl-piperidin-1yl)-methanone], 13%.

For a further assay, the target named is T2, GST fusion protein containing the Met kinase domain (Homo sapiens, UniProt P08581).
T2 construct: Purified GST fusion protein containing the Met kinase domain, SUGEN, Inc
T2 sequence (P08581 1078-1345 limits assumed): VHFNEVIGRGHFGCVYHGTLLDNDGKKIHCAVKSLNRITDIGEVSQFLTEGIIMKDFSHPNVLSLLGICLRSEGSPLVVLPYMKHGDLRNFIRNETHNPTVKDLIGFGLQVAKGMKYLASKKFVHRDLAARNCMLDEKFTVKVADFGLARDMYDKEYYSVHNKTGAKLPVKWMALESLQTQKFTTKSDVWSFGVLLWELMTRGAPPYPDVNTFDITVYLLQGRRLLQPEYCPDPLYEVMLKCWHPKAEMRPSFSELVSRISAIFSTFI
Put plainly: MET transphosphorylation assay (ELISA, poly(glu-tyr) substrate).
Details: not given
In kind it is biochemical.
The term IC50 denotes the concentration that inhibits the measured activity by half. Higher therefore signals a need for much substance. `CN(C)[C@H]1CCN(C(=O)c2ccc(-c3cnc(N)c(OCc4ccc(F)cc4Cl)c3)cc2)C1` [Example I-205]: the IC50 was determined as 8100 nM. Take `CC(Oc1cc(-c2ccc(OCCN3CCCC3)cc2)cnc1N)c1c(Cl)ccc(F)c1Cl` (stereo not drawn) [Example I-355, 3-[1-(2,6-Dichlaro-3-fluoro-phenyl)-ethoxy]-5-[4-(2-pyrrolidin-1-yl-ethoxy)-phenyl]-pyridin-2-ylamine]: inhibition was half-maximal at 680 nM (IC50).

Staying with this assay, now noted: Table 1; several values in one cell are separated by /.
For `Nc1ncc(Br)cc1OCc1c(F)cccc1Cl` [I(e), 5-Bromo-3-(2-chloro-6-fluoro-benzyloxy)-pyridin-2-ylamine], the IC50 is more than 20000 nM.
